# Measured values reported in patent US20240158446A1, “CYCLIC COMPOUND HAVING SELECTIVE INHIBITORY ACTION ON KRAS OVER HRAS AND NRAS” (CHUGAI SEIYAKU KABUSHIKI KAISHA, priority 2021, published 2024).
# Read-outs that look alike come from different tables or passages of the source. Where a SMILES comes first, the peptide text is derived from it. Bridges are numbered along the chain shown (N, C = ends). [ ]: non-standard residue; d: D form. The star is where a group is joined. hPhe(3-Cl-4-CF3) = N[C@@H](CCc1ccc(C(F)(F)F)c(Cl)c1)C(=O)O; NPrPhe(4-CF3) = CCCN[C@@H](Cc1ccc(C(F)(F)F)cc1)C(=O)O; Pip(4,4-F2) = O=C(O)[C@@H]1CC(F)(F)CCN1; NMeGly(cPent) = CN[C@H](C(=O)O)C1CCCC1; Pro(4,4-F2) = O=C(O)[C@@H]1CC(F)(F)CN1; NMeD = CN[C@@H](CC(=O)O)C(=O)O; NMeL = CN[C@@H](CC(C)C)C(=O)O; NMeNva = CCC[C@H](NC)C(=O)O; Morpholide = C1CN(*)CCO1; NMeA = CN[C@@H](C)C(=O)O; Ac5c = NC1(C(=O)O)CCCC1; Aze = O=C(O)[C@@H]1CCN1; Ac4c = NC1(C(=O)O)CCC1; NEtG = CCNCC(=O)O; Sar = CNCC(=O)O
# How the values were obtained:
# [1] = molecular target: GDP-bound HRAS wild-type protein (Homo sapiens, UniProt P01112); assay: Binding to HRAS by surface plasmon resonance (SPR), Single Cycle Kinetics; settings: for HRAS/KRAS (ratio of KD value with respect to HRAS to KD value with respect to KRAS) / HRAS/KRAS (ratio of KD value for HRAS to KD value for KRAS): GDP-bound HRAS wild-type protein vs GDP-bound KRAS wild-type protein
# Sequence of GDP-bound HRAS wild-type protein (P01112 whole entry): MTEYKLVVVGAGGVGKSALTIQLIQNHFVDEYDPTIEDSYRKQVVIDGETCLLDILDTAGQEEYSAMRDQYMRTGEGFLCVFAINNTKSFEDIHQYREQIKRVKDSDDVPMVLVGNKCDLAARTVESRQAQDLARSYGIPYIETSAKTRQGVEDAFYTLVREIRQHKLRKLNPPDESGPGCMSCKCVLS
# [2] = molecular target: GDP-bound KRAS wild-type protein (Homo sapiens, UniProt P01116); assay: Binding to KRAS by surface plasmon resonance (SPR), Single Cycle Kinetics; settings: GDP-bound KRAS wild-type protein, read-out: KRAS KD
# Sequence of GDP-bound KRAS wild-type protein (P01116 whole entry): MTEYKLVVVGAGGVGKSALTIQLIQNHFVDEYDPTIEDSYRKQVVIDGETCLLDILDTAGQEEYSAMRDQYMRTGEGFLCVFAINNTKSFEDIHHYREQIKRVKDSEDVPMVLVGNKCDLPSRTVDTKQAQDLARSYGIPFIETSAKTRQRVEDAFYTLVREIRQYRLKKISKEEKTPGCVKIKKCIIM
# [3] = molecular target: GDP-bound NRAS wild-type protein (Homo sapiens, UniProt P01111); assay: Binding to NRAS by surface plasmon resonance (SPR), Single Cycle Kinetics; settings: for NRAS/KRAS (ratio of KD value with respect to NRAS to KD value with respect to KRAS) / NRAS/KRAS (ratio of KD value for NRAS to KD value for KRAS): GDP-bound NRAS wild-type protein vs GDP-bound KRAS wild-type protein
# Sequence of GDP-bound NRAS wild-type protein (P01111 whole entry): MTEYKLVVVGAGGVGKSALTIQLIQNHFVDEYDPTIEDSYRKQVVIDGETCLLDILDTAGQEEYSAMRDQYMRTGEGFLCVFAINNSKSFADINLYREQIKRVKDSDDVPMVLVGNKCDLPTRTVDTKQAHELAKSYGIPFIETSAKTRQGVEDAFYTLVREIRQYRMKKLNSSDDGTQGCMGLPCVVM
# [4] = SPR Single Cycle Kinetics, 1:1 binding model
SMILES,"Kd [2, 4] [nM]",HRAS/KRAS (ratio of KD value for HRAS to KD value for KRAS) ([1]; SPR),NRAS/KRAS (ratio of KD value for NRAS to KD value for KRAS) ([3]; SPR),"Kd ([2]; SPR, Single Cycle Kinetics) [nM]",further results
"CCCN1C(=O)CN(C)C(=O)CN(CC)C(=O)[C@H]([C@@H](C)CC)NC(=O)[C@H](CC(C)C)N(C)C(=O)C[C@@H](C(=O)N(C)C)N(C)C(=O)[C@H](C2CCCC2)N(C)C(=O)C2(CCC2)NC(=O)[C@@H]2CC(F)(F)CN2C(=O)[C@H](CCc2ccc(C(F)(F)F)c(Cl)c2)NC(=O)CN(C)C(=O)[C@@H]1Cc1ccc(C(F)(F)F)cc1 [PP0426] ([NMeL]I[NEtG][Sar][NPrPhe(4-CF3)][Sar][hPhe(3-Cl-4-CF3)][Pro(4,4-F2)][Ac4c][NMeGly(cPent)][NMeD]-NMe2; lactam N-11)",0.12,–,–,–,HRAS/KRAS (ratio of KD value with respect to HRAS to KD value with respect to KRAS) ([1]; SPR): C (A compound having a KD ratio of 0.1 or more and less than 3 is denoted as C); NRAS/KRAS (ratio of KD value with respect to NRAS to KD value with respect to KRAS) ([3]; SPR): C (A compound having a KD ratio of 0.1 or more and less than 3 is denoted as C)
CCO[C@@H]1C[C@H]2C(=O)NC3(CCC3)C(=O)N(C)[C@@H](C3CCCC3)C(=O)N(C)[C@H](C(=O)N(C)C)CC(=O)N(C)[C@@H](Cc3cccnc3)C(=O)N[C@@H]([C@@H](C)CC)C(=O)N(C)CC(=O)N(C)[C@H]3CCCCCN(C3=O)[C@@H](Cc3ccc(C(F)(F)F)cc3)C(=O)N(C)CC(=O)N[C@@H](CCc3cc(F)c(C(F)(F)F)c(F)c3)C(=O)N2C1 [PP0673],0.12,–,–,–,HRAS/KRAS (ratio of KD value with respect to HRAS to KD value with respect to KRAS) ([1]; SPR): B (a compound having 3 or more and less than 10 is denoted as B); NRAS/KRAS (ratio of KD value with respect to NRAS to KD value with respect to KRAS) ([3]; SPR): B (a compound having 3 or more and less than 10 is denoted as B)
CCO[C@@H]1C[C@H]2C(=O)NC3(CC(C)(C)C3)C(=O)N(C)[C@@H](C3CCCC3)C(=O)N(C)[C@H](C(=O)N3CCCC3)CC(=O)N(C)[C@H]3CCC/C=C/c4ccc(cc4)C[C@@H](C(=O)N(C)CC(=O)N[C@@H](CCc4cc(F)c(C(F)(F)F)c(F)c4)C(=O)N2C1)N1CC/C=C\C[C@@H](C1=O)N(C)C(=O)CN(C1CC1)C(=O)[C@H]([C@@H](C)CC)NC3=O [PP2583],0.11,–,–,–,"HRAS/KRAS (ratio of KD value with respect to GDP-bound HRAS wild-type protein to KD value with respect to KRAS) ([1]; SPR KD ratio HRAS/KRAS, class symbols): A (a compound having 10 or more and less than 20 is denoted as A); NRAS/KRAS (ratio of KD value with respect to GDP-bound NRAS wild-type protein to KD value with respect to KRAS) ([3]; SPR KD ratio NRAS/KRAS, class symbols): A (a compound having 10 or more and less than 20 is denoted as A)"
"CCCN1C(=O)CN(C)C(=O)[C@@H]2CCN2C(=O)[C@H]([C@@H](C)CC)NC(=O)[C@H](CC(C)C)N(C)C(=O)C[C@@H](C(=O)N2CCOCC2)N(C)C(=O)[C@H](C2CCCC2)N(C)C(=O)C2(CCCC2)NC(=O)[C@@H]2CC(F)(F)CCN2C(=O)[C@H](CCc2ccc(C(F)(F)F)c(Cl)c2)NC(=O)CN(C)C(=O)[C@@H]1Cc1ccc(C(F)(F)F)cc1 [PP0312] ([NMeL]I[Aze][Sar][NPrPhe(4-CF3)][Sar][hPhe(3-Cl-4-CF3)][Pip(4,4-F2)][Ac5c][NMeGly(cPent)][NMeD]-Morpholide; lactam N-11)",3.4,B (a compound having 3 or more and less than 10 is denoted as B),B (a compound having 3 or more and less than 10 is denoted as B),–,–
CCC[C@H]1C(=O)N[C@@H]([C@@H](C)CC)C(=O)N(C)[C@@H](C)C(=O)N2CC[C@H]2C(=O)N(CCC)[C@@H](Cc2ccc(C(F)(F)F)cc2)C(=O)N(C)CC(=O)N[C@@H](CCc2ccc(C(F)(F)F)c(Cl)c2)C(=O)N2CCC[C@H]2C(=O)NC2(CCCC2)C(=O)N(C)[C@@H](C2CCCC2)C(=O)N(C)[C@H](C(=O)N2CCOCC2)CC(=O)N1C [PP0193] ([NMeNva]I[NMeA][Aze][NPrPhe(4-CF3)][Sar][hPhe(3-Cl-4-CF3)]P[Ac5c][NMeGly(cPent)][NMeD]-Morpholide; lactam N-11),0.17,C (A compound having a KD ratio of 0.1 or more and less than 3 is denoted as C),C (A compound having a KD ratio of 0.1 or more and less than 3 is denoted as C),–,–
CCO[C@@H]1C[C@H]2C(=O)NC3(CC(C)(C)C3)C(=O)N(C)[C@@H](C(CC)CC)C(=O)N3CCC[C@@H]3CC(=O)N(C)[C@@H](CC)C(=O)N[C@@H]([C@@H](C)CC)C(=O)N(C)CC(=O)N(C)[C@H]3C/C=C\CCN(C3=O)[C@@H](Cc3ccc(C(F)(F)F)cc3)C(=O)N(C)CC(=O)N[C@@H](CCc3cc(F)c(C(F)(F)F)c(F)c3)C(=O)N2C1 [PP1605],–,–,–,–,"HRAS/KRAS (ratio of KD value for HRAS to KD value for KRAS) ([1]; SPR, KD ratio class): A (a compound having 10 or more and less than 20 is denoted as A); Kd ([2]; SPR, Single Cycle Kinetics, 1:1 binding model): 0.79 nM; NRAS/KRAS (ratio of KD value for NRAS to KD value for KRAS) ([3]; SPR, KD ratio class): A (a compound having 10 or more and less than 20 is denoted as A)"
CCCN1C(=O)[C@@H]2CCN2C(=O)[C@H](C)N(C)C(=O)[C@H]([C@@H](C)CC)NC(=O)[C@H](CC(C)C)N(C)C(=O)C[C@@H](C(=O)N2CCOCC2)N(C)C(=O)[C@H](C2CCCC2)N(C)C(=O)C2(CCC2)NC(=O)[C@@H]2CCCN2C(=O)[C@H](CCc2ccc(C(F)(F)F)c(Cl)c2)NC(=O)CN(C)C(=O)[C@@H]1Cc1ccc(C(F)(F)F)cc1 [PP0198] ([NMeL]I[NMeA][Aze][NPrPhe(4-CF3)][Sar][hPhe(3-Cl-4-CF3)]P[Ac4c][NMeGly(cPent)][NMeD]-Morpholide; lactam N-11),0.19,B (a compound having 3 or more and less than 10 is denoted as B),C (A compound having a KD ratio of 0.1 or more and less than 3 is denoted as C),–,–
CCO[C@@H]1C[C@H]2C(=O)NC3(CCC3)C(=O)N(C)[C@@H](C3CCCC3)C(=O)N(CC)[C@H](C(=O)N3CCOCC3)CC(=O)N(C)[C@@H](CCc3ccccc3)C(=O)N[C@@H]([C@@H](C)CC)C(=O)N(C)CC(=O)N(C)[C@H]3CCCCCN(C3=O)[C@@H](Cc3ccc(C(F)(F)F)cc3)C(=O)N(C)CC(=O)N[C@@H](CCc3cc(F)c(C(F)(F)F)c(F)c3)C(=O)N2C1 [PP0953],–,A (a compound having 10 or more and less than 20 is denoted as A),A (a compound having 10 or more and less than 20 is denoted as A),27,–
CC[C@H](C)[C@@H]1NC(=O)[C@H](CC(C)C)N(C)C(=O)C[C@@H](C(=O)N2CCCCC2)N(C)C(=O)[C@H](C2CCCC2)N(C)C(=O)C2(CCCC2)NC(=O)[C@@H]2CCCN2C(=O)[C@H](CCc2cc(F)c(C(F)(F)F)c(F)c2)NC(=O)CN(C)C(=O)[C@H](Cc2ccc(C(F)(F)F)cc2)N2CCCC[C@@H](C2=O)N(C)C(=O)CN(C)C1=O [PP0572],0.14,–,–,–,HRAS/KRAS (ratio of KD value with respect to HRAS to KD value with respect to KRAS) ([1]; SPR): B (a compound having 3 or more and less than 10 is denoted as B); NRAS/KRAS (ratio of KD value with respect to NRAS to KD value with respect to KRAS) ([3]; SPR): B (a compound having 3 or more and less than 10 is denoted as B)
CCO[C@@H]1C[C@H]2C(=O)NC3(CC(C)(C)C3)C(=O)N(C)[C@@H](C3CCCC3)C(=O)N(C)[C@H](C(=O)N(C)C)CC(=O)N(C)[C@H]3CCCC/C=C/c4ccc(cc4)C[C@@H](C(=O)N(C)CC(=O)N[C@@H](CCc4cc(F)c(C(F)(F)F)c(F)c4)C(=O)N2C1)N1CC/C=C\C[C@@H](C1=O)N(C)C(=O)CN(C)C(=O)[C@H]([C@@H](C)CC)NC3=O [PP1831],–,–,–,0.025,"HRAS/KRAS (KD ratio) ([1]; ratio of KD for GDP-bound HRAS wild-type protein to KD for KRAS, SPR): A (a compound having 10 or more and less than 20 is denoted as A); NRAS/KRAS (KD ratio) ([3]; ratio of KD for GDP-bound NRAS wild-type protein to KD for KRAS, SPR): A (a compound having 10 or more and less than 20 is denoted as A)"
CCCCO[C@@H]1C[C@H]2C(=O)NC3(CCC3)C(=O)N(C)[C@@H](C3CCCC3)C(=O)N(C)[C@H](C(=O)N3CCOCC3)CC(=O)N(C)[C@@H](CC(C)C)C(=O)N[C@@H]([C@@H](C)CC)C(=O)N(C)CC(=O)N(C)[C@H]3CCCCCN(C3=O)[C@@H](Cc3ccc(C(F)(F)F)cc3)C(=O)N(C)CC(=O)N[C@@H](CCc3cc(F)c(C(F)(F)F)c(F)c3)C(=O)N2C1 [PP1004],–,B (a compound having 3 or more and less than 10 is denoted as B),B (a compound having 3 or more and less than 10 is denoted as B),3.7,–
CC[C@H](C)[C@@H]1NC(=O)[C@H](CC(C)C)N(C)C(=O)C[C@@H](C(=O)N2CCOCC2)N(C)C(=O)[C@H](C2CCCC2)N(C)C(=O)C2(CCC2)NC(=O)[C@@H]2[C@@H](OC)CCN2C(=O)[C@H](CCc2cc(F)c(C(F)(F)F)c(F)c2)NC(=O)CN(C)C(=O)[C@H](Cc2ccc(C(F)(F)F)cc2)N2CCCCC[C@@H](C2=O)N(C)C(=O)CN(C)C1=O [PP1067],–,B (a compound having 3 or more and less than 10 is denoted as B),B (a compound having 3 or more and less than 10 is denoted as B),2.9,–
CCO[C@@H]1C[C@H]2C(=O)NC3(CCC3)C(=O)N(C)[C@@H](C3CCCC3)C(=O)N(C)[C@H](C)CC(=O)N(C)[C@@H](CC)C(=O)N[C@@H]([C@@H](C)CC)C(=O)N(C)CC(=O)N(C)[C@H]3C/C=C\CCN(C3=O)[C@@H](Cc3ccc(C(F)(F)F)cc3)C(=O)N(C)CC(=O)N[C@@H](CCc3cc(F)c(C(F)(F)F)c(F)c3)C(=O)N2C1 [PP1095],–,B (a compound having 3 or more and less than 10 is denoted as B),B (a compound having 3 or more and less than 10 is denoted as B),0.18,–
